We go through four compounds from patent US20260265329A1, “POLYPEPTIDE AND DERIVATIVE THEREOF, COMPOSITION, AND USE THEREOF” (HANGZHOU SCIWIND BIOSCIENCES CO., LTD., priority 2023, published 2026).

One series addresses T1, human amylin receptors (Homo sapiens, UniProt O60896+P30988).
T1 construct: host or cells: CHO-K1/Ga15/AMY3 cells, further stably transfected with a CRE-luciferase plasmid
T1 sequence (P30988 25-474): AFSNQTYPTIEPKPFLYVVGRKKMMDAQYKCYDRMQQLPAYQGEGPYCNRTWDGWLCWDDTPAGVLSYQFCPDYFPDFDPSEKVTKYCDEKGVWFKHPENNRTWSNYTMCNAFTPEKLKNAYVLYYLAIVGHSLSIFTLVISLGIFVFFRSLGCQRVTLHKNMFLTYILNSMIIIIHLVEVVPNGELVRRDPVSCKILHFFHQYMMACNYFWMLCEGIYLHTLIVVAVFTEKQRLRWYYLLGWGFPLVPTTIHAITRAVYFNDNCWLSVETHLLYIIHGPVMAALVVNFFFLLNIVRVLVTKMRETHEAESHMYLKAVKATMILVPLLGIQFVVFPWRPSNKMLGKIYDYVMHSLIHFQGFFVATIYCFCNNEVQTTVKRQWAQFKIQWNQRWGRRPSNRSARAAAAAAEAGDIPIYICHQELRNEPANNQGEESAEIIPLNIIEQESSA
T1 sequence (O60896 24-148 partner): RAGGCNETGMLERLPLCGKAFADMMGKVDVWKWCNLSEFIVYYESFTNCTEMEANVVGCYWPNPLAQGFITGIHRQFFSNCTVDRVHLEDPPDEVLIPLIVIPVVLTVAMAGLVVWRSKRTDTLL
As to the kind of experiment: Luciferase assay in stably transfected amylin receptor/CRE-luc CHO cell line. The format is cell-based. As to conditions: for Relative activity: EC50 ratio of Cagrilintide to the compound, Cagrilintide 100%; for EC50: amylin receptor/CRE-luc CHO cells, 24 hours incubation, luminescence.

A short description of series [1]: Heat accelerated stability assay, 40° C., detection on 10 d and 20 d. The format is physicochemical. As to conditions: 1 mg/mL, pH about 7.4, 40° C. How it is done: The derivatives (1 mg/mL) were mixed with sodium dihydrogen phosphate (1.42 mg/mL) and dissolved in ultrapure water. After adjusting pH to about 7.4 with hydrochloric acid/sodium hydroxide, the solution was filtered into a sterilized vial in a clean bench using a 0.22 μm sterile filter. The vial was then capped and placed into the stability test chamber at 40° C. Detections were made on 10d and 20d, and during the assay changes in the characteristics and properties of the polypeptides were observed and recorded. The sample was then centrifuged for 3 min at 10000 rpm at 4° C., and the supernatant was transferred to a liquid phase sample vial for detecting the concentration and purity of the polypeptides using liquid phase chromatography described as below.
Flow rate: 1.0 mL/min; Autosampler temperature: 25° C.; Column temperature: 25° C.; Detection wavelength: 214 nm; Mobile phase A: 110 mM phosphate buffer (pH 5.8): ACN=90:10; Mobile phase B: ACN: IPA: H2O=85:5:10; and Gradient of elution listed in Table 6: […]

A short description of series [2]: Heat accelerated stability assay, 40° C., detection on 7 d and 28 d. The format is physicochemical. In a few lines: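 Reversed-phase HPLC (214 nm, 0.05% TFA water/acetonitrile gradient, column 25° C.) measured polypeptide concentration and purity in centrifuged supernatants on days 7 and 28. Samples: 1 mg/mL derivative with 1.42 mg/mL sodium dihydrogen phosphate, pH about 7.4, filtered and held at 40° C.; physical changes also recorded.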

The next series in a line: in vivo. More on the design: species or system SD rats. To be noted: rat, sc, 1 mg/kg. On the procedure:
The animals received a subcutaneous injection of corresponding compounds for testing (1 mg/kg and 5 ml/kg), and the day of administration was designated as D1. The whole blood of the animals was collected pre dose (-10 min) on D1 and post dose at D1-2h, D1-4h, D1-6h, D2-24h, D3-48h, D4-72h, D5-96h, and D6-120 h and was processed into plasma (using EDTA for anticoagulation). Liquid chromatography-tandem mass spectrometry (LC-MS/MS) was used to detect the concentration of drug molecules in the plasma, and GraphPad Prism 10 was utilized to plot a concentration-time curve for the drugs whose pharmacokinetic parameters including Cmax, Tmax, T1/2, AUC, and MRT were then calculated with PKSolver.

Starred links: 1 amine or outer side, 2 acyl side, 3 side chain; linkers in the order of their positions; H or OH if unused. Non-standard residues stand in square brackets, D forms with d. Residues, ends and D or L forms follow the SMILES beside them. *: point of attachment. C20 diacid = O=C(O)CCCCCCCCCCCCCCCCCCC(=O)*; γGlu = O=C(O)[C@H](CCC(=O)[*:2])N[*:1]; Hyp = O=C(O)[C@@H]1C[C@@H](O)CN1; NMeN = CN[C@@H](CC(N)=O)C(=O)O

As to `CC[C@H](C)[C@H](NC(=O)[C@@H]1CCCN1C(=O)[C@H](CCCCN)NC(=O)[C@H](CC(C)C)NC(=O)[C@H](CC(N)=O)NC(=O)[C@H](CO)NC(=O)[C@H](CO)NC(=O)[C@H](CO)NC(=O)[C@H](Cc1c[nH]cn1)NC(=O)[C@H](CCCNC(=N)N)NC(=O)[C@H](CC(C)C)NC(=O)[C@H](Cc1ccccc1)NC(=O)[C@H](CC(=O)O)NC(=O)[C@H](C)NC(=O)[C@H](CC(C)C)NC(=O)[C@H](CCCNC(=N)N)NC(=O)[C@H](CCC(N)=O)NC(=O)[C@@H](NC(=O)[C@H](C)NC(=O)[C@H](C)NC(=O)[C@@H](NC(=O)[C@H](CO)NC(=O)[C@H](CC(C)C)NC(=O)[C@H](CCC(N)=O)NC(=O)[C@H](CO)NC(=O)[C@H](C)NC(=O)CC[C@H](NC(=O)CCCCCCCCCCCCCCCCCCC(=O)O)C(=O)O)[C@@H](C)O)[C@@H](C)O)C(=O)N[C@@H](CC(C)C)C(=O)N1CCC[C@H]1C(=O)N1CCC[C@H]1C(=O)N[C@H](C(=O)N[C@@H](CC(N)=O)C(=O)N[C@H](C(=O)NCC(=O)N[C@@H](CO)C(=O)N[C@@H](CC(N)=O)C(=O)N[C@H](C(=O)N1C[C@H](O)C[C@H]1C(N)=O)[C@@H](C)O)C(C)C)[C@@H](C)O` [M48] ({C20 diacid-γGlu}-ASQLSTAATQRLADFLRHSSSNLKPILPPTNVGSNT[Hyp]-NH2), on human amylin receptors, the Relative activity came out at 180% and the EC50 is 0.05 nM. The “Reduction in purity, 10 d” value in series [1] was found to be 8.61%.
As to `CC[C@H](C)[C@H](NC(=O)[C@@H]1CCCN1C(=O)CNC(=O)[C@H](Cc1ccccc1)NC(=O)[C@H](CC(N)=O)NC(=O)[C@H](CC(N)=O)NC(=O)[C@H](CO)NC(=O)[C@H](CO)NC(=O)[C@H](Cc1c[nH]cn1)NC(=O)[C@H](CCCNC(=N)N)NC(=O)[C@H](CC(C)C)NC(=O)[C@H](Cc1ccccc1)NC(=O)[C@H](CCC(=O)O)NC(=O)[C@H](C)NC(=O)[C@H](CC(C)C)NC(=O)[C@H](CCCNC(=N)N)NC(=O)[C@H](CCC(N)=O)NC(=O)[C@@H](NC(=O)[C@H](C)NC(=O)[C@@H]1CSSC[C@H](NC(=O)[C@H](CCCCN)NC(=O)CC[C@H](NC(=O)CCCCCCCCCCCCCCCCCCC(=O)O)C(=O)O)C(=O)N[C@@H](CC(N)=O)C(=O)N[C@@H]([C@@H](C)O)C(=O)N[C@@H](C)C(=O)N[C@@H]([C@@H](C)O)C(=O)N1)[C@@H](C)O)C(=O)N[C@@H](CC(C)C)C(=O)N1CCC[C@H]1C(=O)N1CCC[C@H]1C(=O)N[C@H](C(=O)N[C@@H](CC(N)=O)C(=O)N[C@H](C(=O)NCC(=O)N[C@@H](CO)C(=O)N[C@@H](CC(N)=O)C(=O)N[C@H](C(=O)N1CCC[C@H]1C(N)=O)[C@@H](C)O)C(C)C)[C@@H](C)O` [Cagrilintide, reference compound], on human amylin receptors, the Relative activity turned out to be 100%. Moreover, the “Purity from the reversed phase chromatography-214 nm, 0 d” value in series [2] (1 mg/mL, pH about 7.4, 40° C., 0 d) turned out to be 90.04. In addition, the “Purity from the reversed phase chromatography-214 nm, 7 d” value in series [2] (1 mg/mL, pH about 7.4, 40° C., 7 d) was found to be 82.03. In addition, the “Purity from the reversed phase chromatography-214 nm, 28 d” value in series [2] (1 mg/mL, pH about 7.4, 40° C., 28 d) stood at 73.89. For the same compound, the “Change (7 d − 0 d)” value in series [2] (purity on 7 d − purity on 0 d, 40° C., pH about 7.4) was −8.01. Also, the “Change (28 d − 0 d)” value in series [2] (purity on 28 d − purity on 0 d, 40° C., pH about 7.4) is given as −16.15. The “Reduction in purity, 10 d” value in series [1] came out at 44.83%. In “in vivo”, the AUC(0-inf) is 177 µg·h/mL, the AUC(0-t) was 173 µg·h/mL, the Cmax is 3270 ng/mL and the MRT inf is 43.4 h. Also, in the series “in vivo”, the Tmax was found to be 24 h and the half-life was 24.7 h.
Turning to `CC[C@H](C)[C@H](NC(=O)[C@@H]1CCCN1C(=O)[C@H](CCCCN)NC(=O)[C@H](CC(C)C)NC(=O)[C@H](CCC(=O)O)NC(=O)[C@H](CCC(=O)O)NC(=O)[C@H](CO)NC(=O)[C@H](CO)NC(=O)[C@H](Cc1c[nH]cn1)NC(=O)[C@H](CCCNC(=N)N)NC(=O)[C@H](CC(C)C)NC(=O)[C@H](Cc1ccccc1)NC(=O)[C@H](CC(=O)O)NC(=O)[C@H](C)NC(=O)[C@H](CC(C)C)NC(=O)[C@H](CCCNC(=N)N)NC(=O)[C@H](CCC(N)=O)NC(=O)[C@@H](NC(=O)[C@H](C)NC(=O)[C@H](C)NC(=O)[C@@H](NC(=O)[C@H](CO)NC(=O)[C@H](CC(C)C)NC(=O)[C@H](CCC(N)=O)NC(=O)[C@H](CO)NC(=O)[C@H](C)NC(=O)CC[C@H](NC(=O)CCCCCCCCCCCCCCCCCCC(=O)O)C(=O)O)[C@@H](C)O)[C@@H](C)O)C(=O)N[C@@H](CC(C)C)C(=O)N1CCC[C@H]1C(=O)N1CCC[C@H]1C(=O)N[C@H](C(=O)N[C@@H](CC(N)=O)C(=O)N[C@H](C(=O)NCC(=O)N[C@@H](CO)C(=O)N[C@@H](CC(N)=O)C(=O)N[C@H](C(=O)N1C[C@H](O)C[C@H]1C(N)=O)[C@@H](C)O)C(C)C)[C@@H](C)O` [M42] ({C20 diacid-γGlu}-ASQLSTAATQRLADFLRHSSEELKPILPPTNVGSNT[Hyp]-NH2), at human amylin receptors, the Relative activity amounted to 32% and a half-maximal effect (EC50) was put at 0.28 nM. In addition, in series [1], the “Reduction in purity, 10 d” value is recorded as 4.8%.
Turning to `CC[C@H](C)[C@H](NC(=O)[C@@H]1CCCN1C(=O)[C@H](CCCCN)NC(=O)[C@H](CC(C)C)NC(=O)[C@H](CC(N)=O)N(C)C(=O)[C@H](CC(N)=O)NC(=O)[C@H](CO)NC(=O)[C@H](CO)NC(=O)[C@H](Cc1c[nH]cn1)NC(=O)[C@H](CCCNC(=N)N)NC(=O)[C@H](CC(C)C)NC(=O)[C@H](Cc1ccccc1)NC(=O)[C@H](CC(=O)O)NC(=O)[C@H](C)NC(=O)[C@H](CC(C)C)NC(=O)[C@H](CCCNC(=N)N)NC(=O)[C@H](CCC(N)=O)NC(=O)[C@@H](NC(=O)[C@H](C)NC(=O)[C@H](C)NC(=O)[C@@H](NC(=O)[C@H](CO)NC(=O)[C@H](CC(C)C)NC(=O)[C@H](CCC(N)=O)NC(=O)[C@H](CO)NC(=O)[C@H](C)NC(=O)CC[C@H](NC(=O)CCCCCCCCCCCCCCCCCCC(=O)O)C(=O)O)[C@@H](C)O)[C@@H](C)O)C(=O)N[C@@H](CC(C)C)C(=O)N1CCC[C@H]1C(=O)N1CCC[C@H]1C(=O)N[C@H](C(=O)N[C@@H](CC(N)=O)C(=O)N[C@H](C(=O)NCC(=O)N[C@@H](CO)C(=O)N[C@@H](CC(N)=O)C(=O)N[C@H](C(=O)N1C[C@H](O)C[C@H]1C(N)=O)[C@@H](C)O)C(C)C)[C@@H](C)O` [M44] ({C20 diacid-γGlu}-ASQLSTAATQRLADFLRHSSN[NMeN]LKPILPPTNVGSNT[Hyp]-NH2), on human amylin receptors, the Relative activity is recorded as 130% and a half-maximal effect (EC50) was put at 0.1 nM. For the same compound, in series [1], the “Reduction in purity, 10 d” value is 21.09%. For the same compound, in series [1] (20 d), the “Reduction in purity, 20 d” value amounted to 37.35%.
